Structures are written as SMILES.

The experiment has as its target ROMK (Kir1.1) channel (Homo sapiens (Human), UniProt P48048). Description: Thallium Flux Assay. The experiment is classed as cell-based. The procedure:
A Thallium Flux Assay was performed on each of the final product compounds of the Examples. This assay has been described previously; see, e.g., PCT Published Application WO 2013/062900.

Chain of ROMK (Kir1.1) channel (P48048 whole entry): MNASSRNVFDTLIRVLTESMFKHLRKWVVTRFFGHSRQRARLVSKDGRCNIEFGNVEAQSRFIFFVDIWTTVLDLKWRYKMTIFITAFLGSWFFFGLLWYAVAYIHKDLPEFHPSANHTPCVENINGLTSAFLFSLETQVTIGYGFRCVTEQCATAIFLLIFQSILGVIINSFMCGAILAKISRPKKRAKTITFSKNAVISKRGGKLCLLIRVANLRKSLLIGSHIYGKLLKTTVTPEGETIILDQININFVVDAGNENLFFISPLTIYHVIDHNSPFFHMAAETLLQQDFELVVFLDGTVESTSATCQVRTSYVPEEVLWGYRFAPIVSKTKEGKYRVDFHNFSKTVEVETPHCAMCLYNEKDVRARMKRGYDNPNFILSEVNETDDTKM

The molecule `CC1=C(N2CC[C@]3(CC[C@](C)(NCc4ccc(-n5cnnn5)nn4)CC3)C2=O)COC1=O` [Example 42, (5s,8s)-8-methyl-2-(4-methyl-5-oxo-2,5-dihydrofuran-3-yl)-8-({[6-(1H-tetrazol-1-yl)pyridazin-3-yl]methyl}amino)-2-azaspiro[4.5]decan-1-one] gave a half-inhibitory concentration (IC50) of 70 nM. In other words, the double-digit nanomolar range. In turn, `CC1=C(N2CC[C@]3(CC[C@H](NCc4ccc(-n5cnnn5)cc4)CC3)C2=O)COC1=O` [Example 43, (5s,8s)-2-(4-methyl-5-oxo-2,5-dihydrofuran-3-yl)-8-{[4-(1H-tetrazol-1-yl)benzyl]amino}-2-azaspiro[4.5]decan-1-one] displayed an IC50 of 49 nM. `CC1=C(N2CC[C@]3(CC[C@@H](NCc4ccc(-n5cnnn5)cc4)CC3)C2=O)COC1=O` [Example 44, (5r,8r)-2-(4-methyl-5-oxo-2,5-dihydrofuran-3-yl)-8-{[4-(1H-tetrazol-1-yl)benzyl]amino}-2-azaspiro[4.5]decan-1-one]: the IC50 came out at 3.1 nM. For `CC1=C(N2CC[C@]3(CC[C@@H](NCc4ccc5c(c4)-c4nnnn4C5)CC3)C2=O)COC1=O` [Example 47, (5r,8r)-2-(4-methyl-5-oxo-2,5-dihydrofuran-3-yl)-8-[(5H-tetrazolo[5,1-a]isoindol-8-ylmethyl)amino]-2-azaspiro[4.5]decan-1-one], inhibition was half-maximal at 550 nM (IC50).

`CC1=C(N2CC[C@]3(CC[C@@](C)(NCc4ccc(-n5cnnn5)nn4)CC3)C2=O)COC1=O` [Example 48, (5r,8r)-8-methyl-2-(4-methyl-5-oxo-2,5-dihydrofuran-3-yl)-8-({[6-(1H-tetrazol-1-yl)pyridazin-3-yl]methyl}amino)-2-azaspiro[4.5]decan-1-one] showed an IC50 of 7.7 nM. Molecule `CC1C[C@]2(CC[C@@H](NCc3cnc(-n4cnnn4)cn3)CC2)C(=O)N1C1=CC(=O)OC1` (some centres unmarked) [Example 49, (5r,8r)-3-methyl-2-(5-oxo-2,5-dihydrofuran-3-yl)-8-({[5-(1H-tetrazol-1-yl)pyrazin-2-yl]methyl}amino)-2-azaspiro[4.5]decan-1-one] gave an IC50 of 240 nM. Consider `CC1C[C@]2(CC[C@@H](NCc3cnc(-n4cnnn4)cn3)CC2)C(=O)N1C1=CC(=O)OC1` (some centres unmarked) [Example 50, (5r,8r)-3-methyl-2-(5-oxo-2,5-dihydrofuran-3-yl)-8-({[5-(1H-tetrazol-1-yl)pyrazin-2-yl]methyl}amino)-2-azaspiro[4.5]decan-1-one], for which half-maximal inhibition (IC50) required 39 nM. Take `CC1=C(N2CC[C@]3(CC[C@@H](NCc4ccc5c(c4)CCc4nnnn4-5)CC3)C2=O)COC1=O` [Example 51, (5r,8r)-8-(((4,5-dihydrotetrazolo[1,5-a]quinolin-7-yl)methyl)amino)-2-(4-methyl-5-oxo-2,5-dihydrofuran-3-yl)-2-azaspiro[4.5]decan-1-one]: half-maximal inhibition (IC50) required 4.3 nM. `CC1=C(N2CC[C@]3(CC[C@@H](NCc4cnc5c(c4)Cn4nnnc4-5)CC3)C2=O)COC1=O` [Example 52, (5r,8r)-8-(((8H-tetrazolo[1′,5′:1,2]pyrrolo[3,4-b]pyridin-6-yl)methyl)amino)-2-(4-methyl-5-oxo-2,5-dihydrofuran-3-yl)-2-azaspiro[4.5]decan-1-one]: the IC50 is 160 nM. Against the preceding molecule, the IC50 is about 37-fold higher. The molecule `CC1=C(N2CC[C@]3(CC[C@@H](NCc4ccc5c(c4)C(C)n4nnnc4-5)CC3)C2=O)COC1=O` (some centres unmarked) [Example 53, (5r,8r)-2-(4-methyl-5-oxo-2,5-dihydrofuran-3-yl)-8-(((5-methyl-5H-tetrazolo[5,1-a]isoindol-7-yl)methyl)amino)-2-azaspiro[4.5]decan-1-one] registered an IC50 of 19 nM. In the case of `CC1=C(N2CC[C@]3(CC[C@@H](NCc4ccc5c(c4C)Cn4nnnc4-5)CC3)C2=O)COC1=O` [Example 54, (5r,8r)-2-(4-methyl-5-oxo-2,5-dihydrofuran-3-yl)-8-(((6-methyl-5H-tetrazolo[5,1-a]isoindol-7-yl)methyl)amino)-2-azaspiro[4.5]decan-1-one] it was 32 nM.

Source of the values: US9718808B2, “Inhibitors of the renal outer medullary potassium channel” (Merck Sharp & Dohme Corp., priority 2014, dated 2017).
